Experiments:
Assay type in all cases: in vivo
[1] = system: Abutilon theophrasti (ABUTH); assay: Pre-emergence herbicidal action against ABUTH; conditions: Dosage column 320 g/ha (title prints 3200 g/ha); scored visually after about 3 weeks; 100% = plants have died
Summary of the method: (§1)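 Pre-emergence soil-surface spray of compound, formulated as wettable powder or emulsion concentrate, in aqueous suspension or emulsion with 0.5% additive (600 l/ha; rate 320 g/ha or less). Activity rated visually after roughly 3 weeks in the greenhouse as a percentage of untreated controls, 0% meaning no difference.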

[2] = system: Alopecurus myosuroides (ALOMY); assay: Pre-emergence herbicidal action against ALOMY; conditions: scored visually after about 3 weeks, 100% = plants have died
Summary of the method: as §1

[3] = system: Amaranthus retroflexus (AMARE); assay: Pre-emergence herbicidal action against AMARE; conditions: visual scoring after about 3 weeks vs untreated controls
Summary of the method: as §1

Avena fatua (AVEFA) [4] = assay: Pre-emergence herbicidal action against AVEFA; conditions: visual scoring after about 3 weeks vs untreated controls
Summary of the method: as §1

[5] = system: Echinochloa crus-galli (ECHCG); assay: Pre-emergence herbicidal action against ECHCG
Summary of the method: as §1

Lolium rigidum (LOLRI) [6] = assay: Pre-emergence herbicidal action against LOLRI
Summary of the method: as §1

[7] = system: Matricaria inodora (MATIN); assay: Pre-emergence herbicidal action against MATIN
Summary of the method: as §1

[8] = system: Pharbitis purpurea (PHBPU); assay: Pre-emergence herbicidal action against PHBPU
Summary of the method: as §1

[9] = system: Polygonum convolvulus (POLCO); assay: Pre-emergence herbicidal action against POLCO
Summary of the method: as §1

Setaria viridis (SETVI) [10] = assay: Pre-emergence herbicidal action against SETVI
Summary of the method: as §1

[11] = system: Verconica persica (VERPE); assay: Pre-emergence herbicidal action against VERPE
Summary of the method: as §1

Viola tricolor (VIOTR) [12] = assay: Pre-emergence herbicidal action against VIOTR
Summary of the method: as §1

[13] = system: Alopecurus myosuroides (ALOMY); assay: Post-emergence herbicidal action against ALOMY; conditions: visual rating about 3 weeks after treatment vs untreated controls (100% = plants have died, 0% = like control plants)
Summary of the method: (§2)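 Post-emergence greenhouse spray, one-leaf stage, 600 l/ha water plus 0.5% additive; WP or EC formulations; application rates 320 g/ha or lower. Visual % damage vs untreated controls at ~3 weeks.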

Avena fatua (AVEFA) [14] = assay: Post-emergence herbicidal action against AVEFA; conditions: visual rating about 3 weeks after treatment
Summary of the method: as §2

[15] = system: Echinochloa crus-galli (ECHCG); assay: Post-emergence herbicidal action against ECHCG
Summary of the method: as §2

Lolium rigidum (LOLRI) [16] = assay: Post-emergence herbicidal action against LOLRI
Summary of the method: as §2

[17] = system: Matricaria inodora (MATIN); assay: Post-emergence herbicidal action against MATIN
Summary of the method: as §2

[18] = system: Pharbitis purpurea (PHBPU); assay: Post-emergence herbicidal action against PHBPU
Summary of the method: as §2

[19] = system: Verconica persica (VERPE); assay: Post-emergence herbicidal action against VERPE
Summary of the method: as §2

Viola tricolor (VIOTR) [20] = assay: Post-emergence herbicidal action against VIOTR
Summary of the method: as §2

Setaria viridis (SETVI) [21] = assay: Post-emergence herbicidal action against SETVI
Summary of the method: as §2

[22] = system: Amaranthus retroflexus (AMARE); assay: Post-emergence herbicidal action against AMARE
Summary of the method: as §2

Oryza sativa (ORYSA) = conditions: crop plant compatibility, 80 g/ha, effect in comparison to untreated controls
Summary of the method: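 Greenhouse crops in sandy loam sprayed post-emergence at the one-leaf stage, 2–3 weeks after sowing, with WP or EC formulations in water plus 0.5% additive at 600 l/ha. Damage rated visually about 3 weeks later versus untreated controls (0% = like control, 100% = dead); suffixes a–c denote different doses.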

| Compound | Pre-emergence action against ABUTH [1] [%] | Pre-emergence action against ALOMY ([2]; 80 g/ha) [%] | Pre-emergence action against ALOMY ([2]; 320 g/ha) [%] | Pre-emergence action against AMARE in % ([3]; 80 g/ha) [%] | Pre-emergence action against AMARE in % ([3]; 320 g/ha) [%] | Pre-emergence action against AVEFA in % (Avena fatua (AVEFA) [4]; 320 g/ha) [%] | Pre-emergence action against ECHCG in % ([5]; dosage 80 g/ha) [%] | Pre-emergence action against ECHCG in % ([5]; dosage 320 g/ha) [%] | Pre-emergence action against MATIN in % ([7]; dosage 320 g/ha) [%] | Pre-emergence action against PHBPU in % ([8]; dosage 80 g/ha) [%] | Pre-emergence action against PHBPU in % ([8]; dosage 320 g/ha) [%] | Pre-emergence action against POLCO in % ([9]; dosage 80 g/ha) [%] | Pre-emergence action against POLCO in % ([9]; dosage 320 g/ha) [%] | Pre-emergence action against SETVI in % (Setaria viridis (SETVI) [10]; dosage 320 g/ha) [%] | Pre-emergence action against VERPE in % ([11]; dosage 320 g/ha) [%] | Pre-emergence action against VIOTR in % (Viola tricolor (VIOTR) [12]; 320 g/ha, Viola tricolor) [%] | Pre-emergence action against VIOTR in % (Viola tricolor (VIOTR) [12]; dosage 80 g/ha) [%] | Post-emergence action against ALOMY in % ([13]; 80 g/ha) [%] | Post-emergence action against ALOMY in % ([13]; 320 g/ha) [%] | Post-emergence action against ECHCG in % ([15]; dosage 80 g/ha) [%] | also measured |
| --- | --- | --- | --- | --- | --- | --- | --- | --- | --- | --- | --- | --- | --- | --- | --- | --- | --- | --- | --- | --- | --- |
| CCOC(=O)[C@@H](C)Oc1nn(-c2ncccc2F)c(-c2ccc(F)nc2)c1C(F)(F)F [Example I-308] | 100 | 100 | 100 | 100 | 100 | 100 | 100 | 100 | 100 | 90 | 90 | 100 | 100 | 100 | 100 | 100 | 100 | 100 | 100 | 90 | Pre-emergence action against AVEFA in % (Avena fatua (AVEFA) [4]; 80 g/ha): 100%; Pre-emergence action against LOLRI in % (Lolium rigidum (LOLRI) [6]; dosage 80 g/ha): 100%; Pre-emergence action against LOLRI in % (Lolium rigidum (LOLRI) [6]; dosage 320 g/ha): 100%; Pre-emergence action against MATIN in % ([7]; dosage 80 g/ha): 100%; Pre-emergence action against VERPE in % ([11]; dosage 80 g/ha): 100%; Post-emergence action against AVEFA in % (Avena fatua (AVEFA) [14]; 80 g/ha): 90%; Post-emergence action against AVEFA in % (Avena fatua (AVEFA) [14]; 320 g/ha): 90%; Post-emergence action against ECHCG in % ([15]; dosage 320 g/ha): 90%; Post-emergence action against LOLRI in % (Lolium rigidum (LOLRI) [16]; dosage 80 g/ha): 90%; Post-emergence action against LOLRI in % (Lolium rigidum (LOLRI) [16]; dosage 320 g/ha): 100%; Post-emergence action against MATIN in % ([17]; dosage 80 g/ha): 80%; Post-emergence action against MATIN in % ([17]; dosage 320 g/ha): 90%; Post-emergence action against PHBPU in % ([18]; dosage 320 g/ha): 90%; Post-emergence action against VERPE in % ([19]; 320 g/ha, VERPE): 90%; Post-emergence action against VERPE in % ([19]; dosage 80 g/ha): 90%; Post-emergence action against VIOTR in % (Viola tricolor (VIOTR) [20]; 80 g/ha): 90%; Post-emergence action against VIOTR in % (Viola tricolor (VIOTR) [20]; 320 g/ha): 90% |
| CCOC(=O)COc1nn(-c2ncccc2C)c(-c2cncc(F)c2)c1Br [Example I-211] | 80 | 80 | 100 | 100 | 100 | 90 | 90 | 100 | 90 | 90 | 90 | 90 | 90 | 100 | 100 | 100 | 90 | 80 | 90 | 80 | Pre-emergence action against LOLRI in % (Lolium rigidum (LOLRI) [6]; dosage 320 g/ha): 80%; Pre-emergence action against MATIN in % ([7]; dosage 80 g/ha): 90%; Pre-emergence action against SETVI in % (Setaria viridis (SETVI) [10]; dosage 80 g/ha): 90%; Post-emergence action against ECHCG in % ([15]; dosage 320 g/ha): 80%; Post-emergence action against LOLRI in % (Lolium rigidum (LOLRI) [16]; dosage 320 g/ha): 80%; Post-emergence action against MATIN in % ([17]; dosage 80 g/ha): 80%; Post-emergence action against MATIN in % ([17]; dosage 320 g/ha): 80%; Post-emergence action against PHBPU in % ([18]; dosage 80 g/ha): 90%; Post-emergence action against PHBPU in % ([18]; dosage 320 g/ha): 100%; Post-emergence action against SETVI in % (Setaria viridis (SETVI) [21]; dosage 80 g/ha): 80%; Post-emergence action against SETVI in % (Setaria viridis (SETVI) [21]; dosage 320 g/ha): 80%; Post-emergence action against VERPE in % ([19]; 320 g/ha, VERPE): 90%; Post-emergence action against VERPE in % ([19]; dosage 80 g/ha): 80%; Post-emergence action against VIOTR in % (Viola tricolor (VIOTR) [20]; 80 g/ha): 80%; Post-emergence action against VIOTR in % (Viola tricolor (VIOTR) [20]; 320 g/ha): 90% |
| C[C@@H](Oc1nn(-c2ncccc2F)c(-c2ccc(F)nc2)c1C(F)(F)F)C(=O)O [Example I-317] | 90 | 100 | 100 | 100 | 100 | 100 | 100 | 100 | 100 | 90 | 90 | 100 | 100 | 90 | 100 | 100 | 100 | 100 | 100 | 80 | Pre-emergence action against AVEFA in % (Avena fatua (AVEFA) [4]; 80 g/ha): 90%; Pre-emergence action against LOLRI in % (Lolium rigidum (LOLRI) [6]; dosage 80 g/ha): 100%; Pre-emergence action against LOLRI in % (Lolium rigidum (LOLRI) [6]; dosage 320 g/ha): 100%; Pre-emergence action against MATIN in % ([7]; dosage 80 g/ha): 100%; Pre-emergence action against SETVI in % (Setaria viridis (SETVI) [10]; dosage 80 g/ha): 80%; Pre-emergence action against VERPE in % ([11]; dosage 80 g/ha): 80%; Post-emergence action against AVEFA in % (Avena fatua (AVEFA) [14]; 80 g/ha): 90%; Post-emergence action against AVEFA in % (Avena fatua (AVEFA) [14]; 320 g/ha): 90%; Post-emergence action against ECHCG in % ([15]; dosage 320 g/ha): 90%; Post-emergence action against LOLRI in % (Lolium rigidum (LOLRI) [16]; dosage 80 g/ha): 90%; Post-emergence action against LOLRI in % (Lolium rigidum (LOLRI) [16]; dosage 320 g/ha): 90%; Post-emergence action against MATIN in % ([17]; dosage 80 g/ha): 90%; Post-emergence action against MATIN in % ([17]; dosage 320 g/ha): 90%; Post-emergence action against PHBPU in % ([18]; dosage 320 g/ha): 80%; Post-emergence action against VERPE in % ([19]; 320 g/ha, VERPE): 90%; Post-emergence action against VERPE in % ([19]; dosage 80 g/ha): 90%; Post-emergence action against VIOTR in % (Viola tricolor (VIOTR) [20]; 80 g/ha): 90%; Post-emergence action against VIOTR in % (Viola tricolor (VIOTR) [20]; 320 g/ha): 90% |
| Cc1cccnc1-n1nc(OCC(=O)O)c(Br)c1-c1cncc(F)c1 [Example I-204] | 80 | 90 | 100 | 90 | 100 | 80 | 90 | 100 | 90 | 90 | 90 | 90 | 90 | 100 | 100 | 100 | 100 | 90 | 90 | 80 | Pre-emergence action against SETVI in % (Setaria viridis (SETVI) [10]; dosage 80 g/ha): 90%; Post-emergence action against AMARE in % ([22]; 80 g/ha, visual rating about 3 weeks after treatment vs untreated controls (100% = plants have died, 0% = like control plants)): 80%; Post-emergence action against AMARE in % ([22]; 320 g/ha, visual rating about 3 weeks after treatment): 80%; Post-emergence action against AVEFA in % (Avena fatua (AVEFA) [14]; 320 g/ha): 80%; Post-emergence action against ECHCG in % ([15]; dosage 320 g/ha): 80%; Post-emergence action against MATIN in % ([17]; dosage 320 g/ha): 80%; Post-emergence action against PHBPU in % ([18]; dosage 320 g/ha): 80%; Post-emergence action against SETVI in % (Setaria viridis (SETVI) [21]; dosage 80 g/ha): 90%; Post-emergence action against SETVI in % (Setaria viridis (SETVI) [21]; dosage 320 g/ha): 90%; Post-emergence action against VERPE in % ([19]; 320 g/ha, VERPE): 90%; Post-emergence action against VERPE in % ([19]; dosage 80 g/ha): 90%; Post-emergence action against VIOTR in % (Viola tricolor (VIOTR) [20]; 80 g/ha): 80%; Post-emergence action against VIOTR in % (Viola tricolor (VIOTR) [20]; 320 g/ha): 80%; Post-emergence action against ORYSA in % (Oryza sativa (ORYSA)): 0% |

Reference: patent US20240041042A1, “1-(PYRIDYL)-5-AZINYLPYRAZOLE DERIVATIVES, AND THEIR USE FOR CONTROL OF UNDESIRED PLANT GROWTH” (Bayer Aktiengesellschaft, priority 2020, published 2024)
